US20220380286A1, “METHOD FOR PRODUCING 2,2'-BIS(CARBOXYMETHOXY)-1,1'-BINAPHTHYL” (HONSHU CHEMICAL INDUSTRY CO., LTD., priority 2019, published 2022)

Experiment: solubility in water (concentration of saturated solution)
Assay type: physicochemical
Conditions: 30° C., crystals filtered in Example 2
Method: After two hours, the reaction solution was gradually cooled and filtered at 25° C. (corresponding to the separation step of the present invention) to obtain crystals. […] The crystals were washed with water (18 g) and then washed with methyl isobutyl ketone (18 g) to obtain 109.0 g of a sodium salt of 2,2′-bis(carboxymethoxy)-1,1′-binaphthyl. For the removal of a mother liquor during the filtration, centrifugal force (small centrifuge H-122, manufactured by KOKUSAN Co., Ltd.) was utilized.

concentration of saturated solution in water: 3.8 wt %
SMILES: O=C([O-])COc1ccc2ccccc2c1-c1c(OCC(=O)[O-])ccc2ccccc12.[Na+].[Na+] [sodium salt of 2,2′-bis(carboxymethoxy)-1,1′-binaphthyl]
